The results in this text go back to ChEMBL document CHEMBL1949654, “Discovery of a Potent Pyrazolopyridine Series of γ-Secretase Modulators” (ACS Med Chem Lett, 2011).

Calls of active or inactive are those of the source. The calls are words filed in the database; no cut-off is given here.

In data set [1] the test system is Rattus norvegicus. Description: Antialzheimer activity in CD rat assessed as reduction in amyloid beta (1 to 40) CSF level at 30 mg/kg, po measured after 3 hrs. Format: functional, organism-based. More on the design: dose 30 mg/kg.
The species named for data set [2] is Mus musculus. Description: Inhibition of mouse gamma-secretase assessed as reduction in reduction in Hes-1 expression up to 20 uM.
The subject of data set [3] is Rattus norvegicus. As to the kind of experiment: Antialzheimer activity in CD rat assessed as reduction in amyloid beta (1 to 42) CSF level at 30 mg/kg, po measured after 3 hrs. Type of data set: functional.
The test system of data set [4] is Rattus norvegicus. Description: Antialzheimer activity in CD rat assessed as reduction in amyloid beta total CSF level at 30 mg/kg, po measured after 3 hrs. Format: functional, organism-based. More on the design: dose 30 mg/kg.
The subject of data set [5] is HEK293. Description: Inhibition of gamma-secretase expressed in HEK293 cells assessed as reduction in Notch cleavage up to 20 uM. Type of data set: cell-based.
Data set [6] is filed under the species Canis lupus familiaris. As to the kind of experiment: Inhibition of dog gamma-secretase assessed as reduction in reduction in Hes-1 expression up to 20 uM.
Data set [7] has as its system P-glycoprotein. As to the kind of experiment: Drug transport assessed as P-glycoprotein-mediated efflux ratio of compound transport from basolateral to apical side over apical to basolateral side. Format: ADME. The settings on record: not told.
The test system of data set [8] is P-glycoprotein. Description: Drug transport assessed as P-glycoprotein-mediated apical to basolateral permeability. Type of data set: ADME. The settings on record: not told; read-out: permeability.
A short description of data set [9]: Inhibition of gamma secretase-mediated amyloid beta (1 to 42) production expressed in HEK293 cells overexpressing APP Swedish mutant after 5 hrs by immunoassay. Format: cell-based.
The subject of data set [10] is P-glycoprotein. Description: Drug transport assessed as P-glycoprotein-mediated basolateral to apical permeability. Format: ADME. The settings on record: not told; read-out: permeability.
Data set [11] in a line: Selectivity ratio of IC50 for gamma secretase-mediated amyloid beta total production to IC50 for gamma secretase-mediated amyloid beta (1 to 42) production.
The nature of data set [12]: Drug uptake in CD rat brain at 30 mg/kg, po measured after 3 hrs. Format: ADME, organism-based. The settings on record: read-out: Drug uptake. More on the design: dose 30 mg/kg, route oral.
Data set [13] is described as follows: Drug uptake in CD rat plasma at 30 mg/kg, po measured after 3 hrs. Set-up: dose 30 mg/kg, route oral. Type of data set: ADME, organism-based.

With `COc1cc(-c2nnc3n([C@@H](C)c4ccc(F)cc4)cc(C)cc2-3)ccc1-n1cnc(C)c1`, the inhibition result in data set [1], in data set [2], in [4], in data set [5] and in data set [6] was “inactive” in each case. In addition, the outcome in data set [3] was inactive. For the same compound, the efflux ratio in data set [7] turned out to be 8.5. Moreover, the Papp A→B in data set [8] was 4.8 ×10⁻⁶ cm/s. In data set [9], this compound gave an IC50 of 85 nM. For the same compound, in data set [10], the Papp B→A is 41.2 ×10⁻⁶ cm/s. Moreover, the Ratio IC50 in data set [11] was 161.
As for `COc1cc(-c2nnc3n([C@@H](C)c4ccc(F)cc4)cc(C(F)F)cc2-3)ccc1-n1cnc(C)c1`, the inhibition result in data set [1], in [2], in data set [4], in data set [5] and in [6] was “inactive” in each case. Further, the outcome in [3] was inactive. Further, the IC50 in [9] came to 123 nM. Besides, the Ratio IC50 in data set [11] amounted to 52.
`COc1cc(-c2nnc3n([C@@H](C)c4cc(F)c(F)c(F)c4)cc(Cl)cc2-3)ccc1-n1cnc(C)c1`: the figures for the concentration at 3 h in [12] and in [13] were 1220 nM and 5020 nM, respectively. In addition, the inhibition entry in data set [1], in data set [2], in data set [4], in [5] and in data set [6] was “inactive” in each case. Further, the Activity in [3] is 45%. Besides, in data set [9], inhibition was half-maximal at 107 nM (IC50). The Ratio IC50 in data set [11] stood at 186.
For the compound `CC[C@@H](c1cc(F)c(F)c(F)c1)n1cc(Cl)cc2c(-c3ccc(-n4cnc(C)c4)c(OC)c3)nnc1-2`, the concentration at 3 h in [12] was determined as 1610 nM; in [13] it was 7230 nM. For the same compound, the inhibition entry in [1], in data set [2], in data set [4], in data set [5] and in data set [6] was “inactive” each time. Further, in data set [3], the Activity stood at 30%. Also, in [9], half-maximal inhibition (IC50) was put at 43 nM. The Ratio IC50 in [11] is 463.
Take `COc1cc(-c2nnc3n([C@@H](C)c4cc(F)cc(F)c4)cccc2-3)ccc1-n1cnc(C)c1`: the concentration at 3 h in data set [12] turned out to be 140 nM; in [13], 1960 nM. The inhibition result in data set [1], in data set [2], in data set [4], in data set [5] and in [6] was “inactive” each time. For the same compound, in data set [3], the result was inactive. Further, the efflux ratio in data set [7] was found to be 3.85. Moreover, the Papp A→B in data set [8] stood at 8.5 ×10⁻⁶ cm/s. Further, the half-maximal inhibitory concentration (IC50) in data set [9] worked out at 117 nM. In [10], the Papp B→A worked out at 32.4 ×10⁻⁶ cm/s. The Ratio IC50 in data set [11] was determined as 94.
Take `COc1cc(-c2nnc3n([C@@H](C)c4ccc(F)c(F)c4)cc(Cl)cc2-3)ccc1-n1cnc(C)c1`: the values for the concentration at 3 h in data set [12] and in data set [13] were 880 nM and 6510 nM, respectively. The inhibition entry in data set [1], in [2], in [4], in data set [5] and in data set [6] was “inactive” throughout. Also, the Activity in data set [3] is listed as 27%. Besides, 66 nM corresponded to half-maximal inhibition in [9] (IC50). Moreover, the Ratio IC50 in data set [11] is 301.
With `COc1cc(-c2nnc3n([C@@H](CO)c4ccc(F)cc4)cc(Cl)cc2-3)ccc1-n1cnc(C)c1`, the concentration at 3 h in [12] came to 100 nM; in data set [13], 2150 nM. The inhibition entry in data set [1], in data set [2], in data set [4], in data set [5] and in data set [6] was “inactive” each time. For the same compound, the result in data set [3] was inactive. In data set [9], this compound gave an IC50 of 168 nM. For the same compound, the Ratio IC50 in data set [11] is 119.
Consider `COc1cc(-c2nnc3n([C@@H](C)c4cc(F)ccc4F)cc(Cl)cc2-3)ccc1-n1cnc(C)c1`, for which the concentration at 3 h in data set [12] amounted to 740 nM; in [13], 2520 nM. For the same compound, the inhibition result in [1], in data set [2], in [4], in data set [5] and in [6] was “inactive” each time. The Activity in data set [3] stood at 24%. This compound also had an IC50 in [9] of 71 nM. The Ratio IC50 in [11] stood at 151.
As for `COc1cc(-c2nnc3n([C@@H](C)c4ccc(F)cc4)cccc2-3)ccc1-n1cnc(C)c1`, the concentration at 3 h in [12] stood at 170 nM; in data set [13], 2880 nM. For the same compound, the inhibition result in data set [1], in data set [2], in [4], in data set [5] and in [6] was “inactive” in each case. For the same compound, the outcome in [3] was inactive. For the same compound, in data set [7], the efflux ratio amounted to 33.8. In data set [8], the Papp A→B was 0.9 ×10⁻⁶ cm/s. It took 97 nM to reach half-maximal inhibition in data set [9] (IC50). In addition, the Papp B→A in data set [10] was 31.4 ×10⁻⁶ cm/s. For the same compound, the Ratio IC50 in data set [11] came out at 205.
As to `CC[C@@H](c1ccc(F)cc1)n1cccc2c(-c3ccc(-n4cnc(C)c4)c(OC)c3)nnc1-2`, the inhibition result in [1], in data set [2], in data set [4], in data set [5] and in data set [6] was “inactive” throughout. The same compound registered an IC50 in [9] of 140 nM. Also, in [11], the Ratio IC50 is 42.
With `COc1cc(-c2nnc3n([C@@H](C)c4ccc(F)cc4)cc(Cl)cc2-3)ccc1-n1cnc(C)c1`, the concentration at 3 h was determined as 920 nM in data set [12] and 2740 nM in data set [13]. Besides, the inhibition result in [1], in [2], in data set [4], in data set [5] and in data set [6] was “inactive” in each case. In data set [3], the Activity amounted to 32%. Also, the half-maximal inhibitory concentration (IC50) in data set [9] came to 70 nM. Also, the Ratio IC50 in [11] was found to be 288.
`COc1cc(-c2nnc3n([C@@H](C)c4ccc(F)cc4)cc(C(C)(F)F)cc2-3)ccc1-n1cnc(C)c1` displayed a concentration at 3 h in [13] of 30 nM. Moreover, the inhibition result in data set [1], in [2], in [4], in [5] and in data set [6] was “inactive” in each case. The result in data set [3] was inactive. Moreover, in [9], the IC50 came to 143 nM. Further, the Ratio IC50 in data set [11] was 66.
